Results taken from patent publication US20240294499A1, “TARGETED PROTEIN DEGRADATION USING BIFUNCTIONAL COMPOUNDS THAT BIND UBIQUITIN LIGASE AND TARGET MCL-1 PROTEIN” (Captor Therapeutics S.A., priority 2021, published 2024).

Assays:
[1] = target: T1, [MCL-1]-[compound of formula (I)]-[CRBN/DDB1] complex (Homo sapiens, UniProt Q07820+Q96SW2); test: AlphaLISA dose response ternary complex formation assay; assay type: binding; settings: for EC50: read-out: AlphaLISA dose response Average pEC50 by molecule (converted)
Summary of the method: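 EC50 comes from dose–response of AlphaLISA luminescence (excitation 680, emission 615 nm), normalised between DMSO background and an internal positive control, with concentrations past the hook point dropped. Ternary complex formed by mixing bead-bound biotin-hMCL-1 and His-CRBN/DDB1 (protein solutions 40 and 200 nM) with compound in 2% DMSO, 30 min, 25 °C.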

MV-4-11 cells = test: Cell viability assay (CellTiter-Glo), MV-4-11; assay type: cell-based; settings: 1% FBS; for IC50: Homo sapiens, MV4-11, 24 hours incubation, read-out: Average pIC50 by molecule MV-4-11 (converted)
Summary of the method: (§1)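 OPM-2, MV-4-11 and ARH-77 cells were grown in medium with 1% FBS and treated with compound in 1/3 dilutions from 30 uM (9–12 points, 0.5% DMSO). Viability was read by CellTiter-Glo luminescence after 24 hours and normalized to DMSO control.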

DMS 114 cells = test: Cell viability assay (CellTiter-Glo), DMS 114; assay type: cell-based; settings: 72 hours incubation, 10% FBS
Description: The effect of various compounds of the invention on the viability of DMS 114 cell line was investigated, using the CTG protocol described below.
DMS 114 cell line is derived from small-cell lung cancer, which is described in the literature as MCL-1 dependent lines [Yasuda Y et al. Cell Death & Disease 2020; 11: 177].
DMS 114 cells were detached with trypsin and then resuspended in growth medium containing 10% FBS and counted. Cell suspension was then adjusted to 5×10^4 cells/ml using growth medium containing 10% FBS. Afterwards, […] were seeded on 384-well plates (50 μl). Plates were then placed in the incubator overnight until treated. Next day, compounds were added using ECHO 555 liquid handler. Compound concentrations used in this assay: 1/3 dilutions starting at 30 uM (9 to 12 points).
After 72 hours of incubation, cell viability was evaluated using CellTiter-Glo Luminescent Cell Viability Assay (Promega, cat #G7572). Luminescence signal was measured using a CLARIOstar Plus Multi-Mode Microplate Reader (574-590 nm).

ARH-77 cells = test: Cell viability assay (CellTiter-Glo), ARH-77; assay type: cell-based; settings: 1% FBS; for IC50: Homo sapiens, ARH-77, 24 hours incubation, read-out: Average pIC50 by molecule ARH-77 (converted)
Summary of the method: as §1

MCL-1 protein = MCL-1 protein (Homo sapiens, UniProt Q07820); test: OPM-2 cells: MCL-1 protein degradation, Simple Western; assay type: cell-based; design: endogenous in cells; host or cells: OPM-2; settings: OPM-2 cell line, 6 h treatment, 100 nM compound, vs DMSO
Description: The effect of various compounds of the invention and the reference compounds on MCL-1protein degradation in the OPM-2 cell line was investigated, using the degradation assay protocol below.
OPM-2 cells were maintained in RPMI-1640 medium, supplemented with penicillin/streptomycin and 10% Fetal Bovine Serum (FBS). During the treatment, FBS concentration was reduced to 1%.
Compound stocks were pre-diluted in DMSO and added directly to the cells growth medium (final DMSO concentration: 0.5%).
OPM-2 cells were collected, centrifuged (250 rcf, 5 min), resuspended in a growth medium containing 1% FBS and counted. The cell suspension was then adjusted to 1×10^6 cell/ml using a growth medium containing 1% FBS. Afterwards, 0.5×10^6 cells were seeded on 24-well plates in 0.5 mL of medium per well. Immediately after seeding cells, compounds in appropriate concentrations were added to the cell culture medium.
Following the treatment with the compounds, cells were collected from the plates and suspended in a lysis buffer (2% SDS, 50 mM Tris, pH 8.0, 100 U/ml Pierce Universal Nuclease for Cell Lysis, cOmplete EDTA-free Protease Inhibitor Cocktail) and incubated on ice for 45 min.
The following steps, including sample loading, protein separation, immunoprobing or labelling, washes and detection analysis was performed using Jess from ProteinSimple, an automatic system for analyzing protein levels in cell lysates (12-230 kDa Jess or Wes separation module 8×25 capillaries, protein normalization assay, no. SM-PN01-1). The Protein of Interest was detected using MCL-1 (D35A5) Rabbit monoclonal antibody (Cell Signaling, #5453, LOT: 4). Antibody was diluted in a ratio of 1:100 in Antibody diluent.
[%] of protein reduction is calculated in comparison to the cells treated with DMSO, which stand for 0%.
The results for the 6 h treatment with 100 nM compounds are shown in Table 9, using the following labels: • <20% for 0-19% of MCL-1 protein reduction, • ≥20% for 20-39% of MCL-1 protein reduction, • ≥40% for 40-100% of MCL-1 protein reduction.

[2] = target: T1, [MCL-1]-[compound of formula (I)]-[CRBN/DDB1] complex; test: HTRF ternary complex assay; assay type: binding; settings: ternary complex formation; read-out: HTRF ternary complex Average pEC50 by molecule (converted)
Summary of the method: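 hMcl-1 and CRBN (mix at 48 nM and 105.6 nM) with Streptavidin-Eu cryptate and anti-6×His-d2 in PPI Europium buffer with 2 mM DTT; compounds in dose-response, 0.5% DMSO. Incubated 180 min at 25° C, TR-FRET 665/620 read. Bell-shaped curve fitted by Gaussian; EC50 reported.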

T1 sequence (Q07820 whole entry): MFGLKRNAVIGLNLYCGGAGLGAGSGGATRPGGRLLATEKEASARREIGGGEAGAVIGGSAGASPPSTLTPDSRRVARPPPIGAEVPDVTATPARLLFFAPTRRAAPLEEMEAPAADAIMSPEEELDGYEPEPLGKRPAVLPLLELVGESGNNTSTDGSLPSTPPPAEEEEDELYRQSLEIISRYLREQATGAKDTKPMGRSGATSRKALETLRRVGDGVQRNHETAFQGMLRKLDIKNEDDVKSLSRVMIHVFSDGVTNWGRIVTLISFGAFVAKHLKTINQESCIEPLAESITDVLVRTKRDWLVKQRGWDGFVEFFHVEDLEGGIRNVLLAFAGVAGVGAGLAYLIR
T1 sequence (Q96SW2 whole entry): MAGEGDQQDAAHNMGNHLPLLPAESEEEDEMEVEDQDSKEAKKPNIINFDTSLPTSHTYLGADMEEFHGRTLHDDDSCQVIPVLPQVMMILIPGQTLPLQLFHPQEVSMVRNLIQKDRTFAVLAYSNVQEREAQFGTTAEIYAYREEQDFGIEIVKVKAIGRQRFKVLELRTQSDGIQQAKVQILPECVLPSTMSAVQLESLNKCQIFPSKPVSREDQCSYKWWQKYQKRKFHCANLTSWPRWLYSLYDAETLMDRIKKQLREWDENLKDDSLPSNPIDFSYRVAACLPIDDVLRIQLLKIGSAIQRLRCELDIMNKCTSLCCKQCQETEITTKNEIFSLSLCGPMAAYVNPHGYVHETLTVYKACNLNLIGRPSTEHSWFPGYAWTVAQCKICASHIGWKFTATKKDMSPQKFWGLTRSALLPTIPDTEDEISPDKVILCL
T1 sequence (Q16531 whole entry partner): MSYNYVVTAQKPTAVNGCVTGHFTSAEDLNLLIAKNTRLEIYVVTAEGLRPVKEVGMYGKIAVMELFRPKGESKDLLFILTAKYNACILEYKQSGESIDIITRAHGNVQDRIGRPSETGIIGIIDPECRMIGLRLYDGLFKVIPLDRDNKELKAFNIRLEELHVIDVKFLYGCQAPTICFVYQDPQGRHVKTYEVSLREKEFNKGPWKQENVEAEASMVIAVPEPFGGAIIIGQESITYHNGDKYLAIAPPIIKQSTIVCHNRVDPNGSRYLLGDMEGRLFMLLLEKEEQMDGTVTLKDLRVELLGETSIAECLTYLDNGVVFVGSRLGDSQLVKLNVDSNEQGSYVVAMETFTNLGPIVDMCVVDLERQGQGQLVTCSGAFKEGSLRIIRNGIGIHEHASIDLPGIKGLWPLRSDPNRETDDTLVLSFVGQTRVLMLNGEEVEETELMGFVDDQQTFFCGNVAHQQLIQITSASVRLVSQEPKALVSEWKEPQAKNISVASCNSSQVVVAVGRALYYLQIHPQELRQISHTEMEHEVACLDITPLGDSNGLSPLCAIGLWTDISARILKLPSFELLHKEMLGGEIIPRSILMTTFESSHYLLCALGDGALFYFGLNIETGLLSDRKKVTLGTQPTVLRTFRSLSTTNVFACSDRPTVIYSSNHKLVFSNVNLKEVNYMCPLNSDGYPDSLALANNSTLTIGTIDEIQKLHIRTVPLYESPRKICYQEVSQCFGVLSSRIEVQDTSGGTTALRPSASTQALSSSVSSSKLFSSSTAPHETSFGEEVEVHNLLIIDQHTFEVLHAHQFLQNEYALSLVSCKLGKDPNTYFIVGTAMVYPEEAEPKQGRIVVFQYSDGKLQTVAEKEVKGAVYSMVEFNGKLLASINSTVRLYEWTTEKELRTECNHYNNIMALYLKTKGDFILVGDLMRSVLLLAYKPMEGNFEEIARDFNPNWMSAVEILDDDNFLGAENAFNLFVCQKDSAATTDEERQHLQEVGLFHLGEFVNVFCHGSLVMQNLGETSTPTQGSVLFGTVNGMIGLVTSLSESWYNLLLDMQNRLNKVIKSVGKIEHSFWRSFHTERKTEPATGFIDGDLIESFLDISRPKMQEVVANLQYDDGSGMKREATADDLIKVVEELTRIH
MCL-1 protein, sequence (Q07820 whole entry): as the sequence (Q07820 whole entry) above

Structure (SMILES) | EC50 [1] [nM] | IC50 (MV-4-11 cells) [nM] | Simple Western, % of protein reduction (MCL-1 protein) [%] | EC50 [2] [nM] | IC50 (ARH-77 cells) [nM] | further results
Cc1nn(C)c(C)c1-c1c(Cl)ccc2c(CCCOc3cccc4cc(F)ccc34)c(C(=O)O)n(CCN3CCN(C(=O)COc4cccc5c4CN(C4CCC(=O)NC4=O)C5=O)CC3)c12 (atropisomer, axis not shown; (Ra)) [Compound 294, (Ra)-6-Chloro-1-(2-(4-(2-((2-(2,6-dioxopiperidin-3-yl)-1-oxoisoindolin-4-yl)oxy)acetyl)piperazin-1-yl)ethyl)-3-(3-((6-fluoronaphthalen-1-yl)oxy)propyl)-7-(1,3,5-trimethyl-1H-pyrazol-4-yl)-1H-indole-2-carboxylic acid] | – | – | – | – | – | AlphaLISA dose response Average pEC50 by molecule [1]: >7; Average pIC50 by molecule MV-4-11 (MV-4-11 cells; 24 hours incubation): ≥7.5; Average pIC50 by molecule DMS 114 (DMS 114 cells): ≥6.0; Average pIC50 by molecule ARH-77 (ARH-77 cells; 24 hours incubation): <5.0
Cc1nn(C)c(C)c1-c1c(F)ccc2c(CCCOc3cccc4ccccc34)c(C(=O)O)n(CCN3CCN(C(=O)COc4cccc5c4C(=O)N(C4CCC(=O)NC4=O)C5=O)CC3)c12 (stereo not drawn) [Compound 213, 1-{2-[4-(2-{[2-(2,6-dioxopiperidin-3-yl)-1,3-dioxo-2,3-dihydro-1H-isoindol-4-yl]oxy}acetyl)piperazin-1-yl]ethyl}-6-fluoro-3-[3-(naphthalen-1-yloxy)propyl]-7-(1,3,5-trimethyl-1H-pyrazol-4-yl)-1H-indole-2-carboxylic acid] | < 100 | ≤ 316 | ≥40 | – | > 10000 | –
Cc1nn(C)c(COc2ccc(N3CCN(S(=O)(=O)N(C)C)CC3)cc2)c1-c1cccc2c(CCCOc3cccc4ccccc34)c(C(=O)O)n(CCN3CCN(C(=O)CNc4cccc5c4C(=O)N(C4CCC(=O)NC4=O)C5=O)CC3)c12 (stereo not drawn) [Compound 245, 7-(5-((4-(4-(N,N-dimethylsulfamoyl)piperazin-1-yl)phenoxy)methyl)-1,3-dimethyl-1H-pyrazol-4-yl)-1-(2-(4-((2-(2,6-dioxopiperidin-3-yl)-1,3-dioxoisoindolin-4-yl)glycyl)piperazin-1-yl)ethyl)-3-(3-(naphthalen-1-yloxy)propyl)-1H-indole-2-carboxylic acid] | < 1000 | – | ≥20 | – | – | –
Cc1nn(C)c(COc2ccc(N3CCN(S(=O)(=O)N(C)C)CC3)cc2)c1-c1cccc2c(CCCOc3cccc4ccccc34)c(C(=O)O)n(CCN3CCN(C(=O)COc4cccc5c4CN(C4CCC(=O)NC4=O)C5=O)CC3)c12 (stereo not drawn) [Compound 249, 7-(5-((4-(4-(N,N-dimethylsulfamoyl)piperazin-1-yl)phenoxy)methyl)-1,3-dimethyl-1H-pyrazol-4-yl)-1-(2-(4-(2-((2-(2,6-dioxopiperidin-3-yl)-1-oxoisoindolin-4-yl)oxy)acetyl)piperazin-1-yl)ethyl)-3-(3-(naphthalen-1-yloxy)propyl)-1H-indole-2-carboxylic acid] | < 100 | ≤ 1000 | ≥20 | – | – | –
Cc1c(-c2c(-c3ccc(F)o3)sc3ncnc(O[C@H](Cc4ccccc4OCc4ccnn4CC(F)(F)F)C(=O)NS(=O)(=O)CCNC(=O)CCOCCOCCNc4cccc5c4C(=O)N(C4CCC(=O)NC4=O)C5=O)c23)ccc(OCCN2CCN(C)CC2)c1Cl (stereo partly drawn) [Compound 260, (2R)-2-[(5-{3-chloro-2-methyl-4-[2-(4-methylpiperazin-1-yl)ethoxy]phenyl}-6-(5-fluorofuran-2-yl)thieno[2,3-d]pyrimidin-4-yl)oxy]-N-(2-{3-[2-(2-{[2-(2,6-dioxopiperidin-3-yl)-1,3-dioxo-2,3-dihydro-1H-isoindol-4-yl]amino}ethoxy)ethoxy]propanamido}ethanesulfonyl)-3-(2-{[1-(2,2,2-trifluoroethyl)-1H-pyrazol-5-yl]methoxy}phenyl)propanamide] | – | – | ≥20 | – | – | –
Cc1nn(C)c(C)c1-c1c(Cl)ccc2c(CCCOc3cccc4cc(F)ccc34)c(C(=O)O)n(CCCCCN(C)C(=O)COc3cccc4c3CN(C3CCC(=O)NC3=O)C4=O)c12 (stereo not drawn) [Compound 328, 6-Chloro-1-(5-(2-((2-(2,6-dioxopiperidin-3-yl)-1-oxoisoindolin-4-yl)oxy)-N-methylacetamido)pentyl)-3-(3-((6-fluoronaphthalen-1-yl)oxy)propyl)-7-(1,3,5-trimethyl-1H-pyrazol-4-yl)-1H-indole-2-carboxylic acid] | < 100 | ≤ 31.6 | – | < 100 | > 3160 | –

Second part, led by results:

EC50 [1] [nM] | IC50 (MV-4-11 cells) [nM] | Simple Western, % of protein reduction (MCL-1 protein) [%] | EC50 [2] [nM] | Structure (SMILES) | IC50 (ARH-77 cells) [nM] | further results
< 100 | ≤ 1000 | ≥40 | – | Cc1ccc2c(CCCOc3cccc4ccccc34)c(C(=O)O)n(CCN3CCN(C(=O)COc4cccc5c4C(=O)N(C4CCC(=O)NC4=O)C5=O)CC3)c2c1-c1c(C)nn(C)c1C (stereo not drawn) [Compound 217, 1-(2-(4-(2-((2-(2,6-dioxopiperidin-3-yl)-1,3-dioxoisoindolin-4-yl)oxy)acetyl)piperazin-1-yl)ethyl)-6-methyl-3-(3-(naphthalen-1-yloxy)propyl)-7-(1,3,5-trimethyl-1H-pyrazol-4-yl)-1H-indole-2-carboxylic acid] | – | –
– | – | ≥20 | – | Cc1nc2c(C(=O)NC3CCC(=O)NC3=O)c(OCC(=O)N3CCN(CCn4c(C(=O)O)c(CCCOc5cccc6ccccc56)c5ccc(Cl)c(-c6c(C)nn(C)c6C)c54)CC3)ccc2[nH]1 (stereo not drawn) [Compound 264, 6-chloro-1-(2-(4-(2-((4-((2,6-dioxopiperidin-3-yl)carbamoyl)-2-methyl-1H-benzo[d]imidazol-5-yl)oxy)acetyl)piperazin-1-yl)ethyl)-3-(3-(naphthalen-1-yloxy)propyl)-7-(1,3,5-trimethyl-1H-pyrazol-4-yl)-1H-indole-2-carboxylic acid] | – | –
< 100 | ≤ 100 | – | < 100 | Cc1nn(C)c(C)c1-c1c(Cl)ccc2c(CCCOc3cccc4cc(F)ccc34)c(C(=O)O)n(CCCNC(=O)COc3cccc4c3CN(C3CCC(=O)NC3=O)C4=O)c12 (stereo not drawn) [Compound 330, 6-Chloro-1-[3-(2-{[2-(2,6-dioxopiperidin-3-yl)-1-oxo-2,3-dihydro-1H-isoindol-4-yl]oxy}acetamido)propyl]-3-{3-[(6-fluoronaphthalen-1-yl)oxy]propyl}-7-(1,3,5-trimethyl-1H-pyrazol-4-yl)-1H-indole-2-carboxylic acid] | > 10000 | –
< 100 | ≤ 100 | – | < 100 | Cc1nn(C)c(C)c1-c1c(Cl)ccc2c(CCCOc3cccc4ccc(F)cc34)c(C(=O)O)n(CCN3CCN(C(=O)COc4cccc5c4CN(C4CCC(=O)NC4=O)C5=O)CC3)c12 (stereo not drawn) [Compound 354, 6-Chloro-1-(2-(4-(2-((2-(2,6-dioxopiperidin-3-yl)-1-oxoisoindolin-4-yl)oxy)acetyl)piperazin-1-yl)ethyl)-3-(3-((7-fluoronaphthalen-1-yl)oxy)propyl)-7-(1,3,5-trimethyl-1H-pyrazol-4-yl)-1H-indole-2-carboxylic acid] | > 10000 | –
